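The concentration for 50% growth inhibition is given as GI50. TGI: total growth inhibition.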
Key:
Assay in all cases: NCI anticancer screen, dose series, 384-well format
[1] = test system: OVCAR-3 ovarian
[2] = test system: NCI-H322M lung
[3] = test system: NCI-H226 lung
[4] = test system: SK-OV-3 ovarian
[5] = test system: SN12C renal
[6] = test system: LOX IMVI melanoma
[7] = test system: CAKI-1 renal
[8] = test system: SF-539 CNS
[9] = test system: KM12 colon
[10] = test system: COLO 205 colon
[11] = test system: EKVX NSCLC
[12] = test system: RPMI-8226 leukemia
[13] = test system: MDA-MB-435 melanoma
[14] = test system: OVCAR-8 ovarian
[15] = test system: SW-620 colon
[16] = test system: MDA-MB-231 breast
[17] = test system: HOP-92 NSCLC
[18] = test system: MCF7 breast
[19] = test system: SNB-19 CNS
[20] = test system: ACHN renal
[21] = test system: MOLT-4 leukemia
[22] = test system: MALME-3M melanoma
[23] = test system: IGROV1 ovarian
[24] = test system: K-562 leukemia
[25] = test system: NCI-H23 lung
[26] = test system: U251 glioblastoma
[27] = test system: M14 melanoma
[28] = test system: T-47D breast
[29] = test system: HOP-62 NSCLC
[30] = test system: SK-MEL-28 melanoma
[31] = test system: HT29 colon
[32] = test system: A549 NSCLC
[33] = test system: HS 578T breast
[34] = test system: NCI-H460 NSCLC
[35] = test system: PC-3 prostate
[36] = test system: SNB-75 CNS
[37] = test system: OVCAR-4 ovarian
[38] = test system: UACC-257 melanoma
[39] = test system: SF-268 CNS
[40] = test system: HCC-2998 colon
[41] = test system: TK-10 renal
[42] = test system: HL-60(TB) leukemia
[43] = test system: MDA-MB-468 breast
[44] = test system: NCI-H522 lung
[45] = test system: NCI/ADR-RES ovarian
[46] = test system: HCT-116 colon
[47] = test system: CCRF-CEM leukemia
[48] = test system: SK-MEL-5 melanoma
[49] = test system: 786-0 renal
[50] = test system: HCT-15 colon
[51] = test system: BT-549 breast
[52] = test system: RXF 393 renal
[53] = test system: UACC-62 melanoma
[54] = test system: SF-295 CNS
[55] = test system: DU-145 prostate
[56] = test system: OVCAR-5 ovarian
[57] = test system: A498 renal
[58] = test system: UO-31 renal

O=C(Nc1cc(Oc2cc(F)c(NC(=O)C3(C(=O)Nc4ccc(F)cc4)CC3)cc2F)ccn1)C1CC1
GI50 [1]: 2.35 µM
TGI [1]: 6 µM
GI50 [2]: 1.6 µM
TGI [2]: 6.88 µM
GI50 [3]: 2.21 µM
TGI [3]: 7.21 µM
GI50 [4]: 3.12 µM
TGI [4]: 9.2 µM
GI50 [5]: 1.65 µM
TGI [5]: 4.5 µM
GI50 [6]: 1.25 µM
TGI [6]: 2.71 µM
GI50 [7]: 1.51 µM
TGI [7]: 3.28 µM
GI50 [8]: 1.46 µM
TGI [8]: 2.93 µM
TGI [9]: 2.72 µM
GI50 [10]: 0.66 µM
TGI [10]: 2.87 µM
GI50 [11]: 1.73 µM
TGI [11]: 4.38 µM
GI50 [12]: 1.93 µM
TGI [12]: 3.37 µM
GI50 [13]: 1.2 µM
TGI [13]: 2.82 µM
GI50 [14]: 1.95 µM
TGI [14]: 9.88 µM
GI50 [15]: 2.38 µM
TGI [15]: 6.96 µM
GI50 [16]: 0.472 µM
TGI [16]: 91.7 µM
GI50 [17]: 2.34 µM
TGI [17]: > 100 µM
GI50 [18]: 0.376 µM
TGI [18]: 2.09 µM
GI50 [19]: 2.75 µM
TGI [19]: 11.4 µM
GI50 [20]: 1.66 µM
TGI [20]: 7.31 µM
GI50 [21]: 0.624 µM
TGI [21]: 1.92 µM
GI50 [22]: 0.249 µM
TGI [22]: 1.1 µM
GI50 [23]: 1.26 µM
TGI [23]: 6.93 µM
GI50 [24]: 0.32 µM
TGI [24]: 13.9 µM
GI50 [25]: 0.173 µM
TGI [25]: 0.578 µM
GI50 [26]: 2.5 µM
TGI [26]: 6.32 µM
GI50 [27]: 0.349 µM
TGI [27]: 1.43 µM
GI50 [28]: 1.38 µM
TGI [28]: 5.17 µM
GI50 [29]: 0.306 µM
TGI [29]: 1.62 µM
GI50 [30]: 1.4 µM
TGI [30]: 2.78 µM
GI50 [31]: 0.659 µM
TGI [31]: 39 µM
GI50 [32]: 1.7 µM
TGI [32]: 8.94 µM
GI50 [33]: 1.35 µM
TGI [33]: 2.71 µM
GI50 [34]: 1.98 µM
TGI [34]: 4.31 µM
GI50 [35]: 3.3 µM
TGI [35]: 8.13 µM
GI50 [36]: 1.62 µM
TGI [36]: 3.03 µM
GI50 [37]: 3.98 µM
TGI [37]: 8.26 µM
GI50 [38]: 1.11 µM
TGI [38]: 2.68 µM
GI50 [39]: 0.364 µM
TGI [39]: 0.962 µM
GI50 [40]: 0.647 µM
TGI [40]: 4.23 µM
GI50 [41]: 3.13 µM
TGI [41]: 20.8 µM
GI50 [42]: 1.15 µM
TGI [42]: 2.38 µM
GI50 [43]: 1.98 µM
TGI [43]: 3.5 µM
GI50 [44]: 2.06 µM
TGI [44]: 4.17 µM
GI50 [45]: 1.78 µM
TGI [45]: 6.99 µM
GI50 [46]: 0.801 µM
TGI [46]: 54.9 µM
GI50 [47]: 0.445 µM
TGI [47]: 1.47 µM
GI50 [48]: 0.512 µM
TGI [48]: 1.94 µM
GI50 [49]: 2 µM
TGI [49]: 8.41 µM
GI50 [50]: 1.93 µM
TGI [50]: 5.65 µM
GI50 [51]: 2.37 µM
TGI [51]: 4.71 µM
GI50 [52]: 1.2 µM
TGI [52]: 2.51 µM
GI50 [53]: 0.394 µM
TGI [53]: 1.6 µM
GI50 [54]: 1.2 µM
TGI [54]: 5.14 µM
GI50 [55]: 1.07 µM
TGI [55]: 61.4 µM
GI50 [56]: 2.35 µM
TGI [56]: 14.8 µM
GI50 [57]: 3.02 µM
TGI [57]: 8.19 µM
GI50 [58]: 2.07 µM
TGI [58]: 7.07 µM

Reference: PubChem BioAssay (NCI)
